Experimental data as given in US9169199B2, “Cycloalkyl guanidine F1F0-ATPase inhibitors and therapeutic uses thereof” (Lycera Corporation, priority 2010, dated 2015).
pEC50, pIC50: −log10 of the molar value.

Key:
Ramos cells = assay: Cytotoxicity in Ramos cells; assay type: cell-based; settings: Homo sapiens, read-out: Ramos cell EC50
Method: (§1) Compounds in Example 4 above were tested for activity against F1F0-ATPase by measuring ATP synthesis. In addition, the compounds were assessed for cytotoxicity in Ramos cells. Inhibition of ATP synthesis by the F1F0-ATPase and cytotoxicity in Ramos cells were measured according to the procedures described in K. M. Johnson et al. Chemistry & Biology 2005, 12, 485-496.

F1F0-ATPase = target: T1, F1F0-ATPase (Bos taurus, UniProt P13621); assay: Inhibition of ATP synthesis by the F1F0-ATPase; assay type: biochemical
T1 construct: from tissue
Method: as §1

| pIC50 (F1F0-ATPase) | SMILES | pEC50 (Ramos cells) |
| --- | --- | --- |
| > 5.00 | CCOC(=O)N[C@H]1CC[C@H](N/C(=N\C(=O)c2ccc(F)c(F)c2)NCc2ccc(F)c(Cl)c2)CC1 [Compound 61] | > 5.00 |
| < 5.00 | O=C(/N=C(/Nc1ccccc1C1CC1)N[C@H]1CC[C@H](O)CC1)c1ccc(Cl)cc1 [Compound 22] | < 5.00 |
| > 5.00 | O=C(/N=C(/Nc1cc(F)cc(Cl)c1)N[C@H]1CC[C@H](NC(=O)N2CCOCC2)CC1)c1ccc(F)c(F)c1 [Compound 136] | > 5.00 |
| < 5.00 | O=C(/N=C(/Nc1cc(F)cc(Cl)c1)N[C@H]1CC[C@H](O)CC1)c1ccc(Cl)cc1 [Compound 28] | > 5.00 |
| > 5.00 | O=C(/N=C(/NCc1ccc(Cl)c(F)c1)N[C@H]1CC[C@H](O)CC1)c1ccc(F)c(F)c1 [Compound 45] | > 5.00 |
| > 5.00 | O=C(/N=C(/Nc1cccc(Cl)c1)N[C@H]1CC[C@H](NC(=O)c2ccccc2)CC1)c1ccc(F)c(F)c1 [Compound 134] | > 5.00 |
| > 5.00 | O=C(/N=C(/NCc1ccc(Cl)cc1F)N[C@H]1CC[C@H](Nc2ncccn2)CC1)c1ccc(F)c(F)c1 [Compound 72] | > 5.00 |
| > 5.00 | CC(C)(C)OC(=O)N[C@H]1CC[C@H](N/C(=N\C(=O)c2ccc(F)c(F)c2)Nc2cccc(Cl)c2)CC1 [Compound 78] | > 5.00 |
| > 5.00 | O=C(/N=C(/Nc1cc(F)cc(Cl)c1)N[C@H]1CC[C@H](NC(=O)C(F)(F)F)CC1)c1ccc(F)c(F)c1 [Compound 130] | > 5.00 |
| > 5.00 | O=C(/N=C(/Nc1cc(F)cc(Cl)c1)NC1CCC(NC(=O)c2nccs2)CC1)c1ccc(F)c(F)c1 (stereo not shown) [Compound 168] | > 5.00 |
| > 5.00 | O=C(/N=C(/Nc1cc(F)cc(Cl)c1)N[C@H]1CCCC[C@@H]1O)c1ccc(F)c(F)c1 [Compound 129] | > 5.00 |
| > 5.00 | COC(=O)N[C@H]1CC[C@H](N/C(=N/C(=O)c2ccc(F)c(F)c2)Nc2cc(F)cc(Cl)c2)CC1 [Compound 11] | > 5.00 |
| > 5.00 | O=C(/N=C(/Nc1cccc(C(F)(F)F)c1)N[C@H]1CC[C@H](Nc2ncccn2)CC1)c1ccc(Cl)cc1 [Compound 119] | > 5.00 |
| > 5.00 | O=C(/N=C(/NCc1cccc(C(F)(F)F)c1)N[C@H]1CC[C@H](Nc2ncccn2)CC1)c1ccc(F)c(F)c1 [Compound 93] | > 5.00 |
| > 5.00 | O=C(/N=C(/Nc1cc(F)cc(Cl)c1)NC1CCC(NC(=O)c2ccccn2)CC1)c1ccc(F)c(F)c1 (stereo not shown) [Compound 171] | > 5.00 |
| > 5.00 | O=C(/N=C(/Nc1cccc(C(F)(F)F)c1)N[C@H]1CC[C@H](O)CC1)c1cccc(Cl)c1 [Compound 24] | > 5.00 |
| > 5.00 | COC(=O)NC1CCC(N/C(=N\C(=O)c2ccc(C)cc2)Nc2cc(F)cc(Cl)c2)CC1 (stereo not shown) [Compound 147] | > 5.00 |
